Values after ≈ are worked out from the molar mass of the structure shown. Where two headings read alike, the source gives them in different places.
Columns and labels:
[1] = system: Mycobacterium tuberculosis H37Ra ITM-M006710 (ATCC 9431); assay: Antimycobacterial microdilution (resazurin) vs Mtb H37Ra; type: cell-based; details: Middlebrook 7H9, resazurin, recalculated from µg/mL, read-out: MIC Mtb H37Ra
[2] = system: Mycobacterium tuberculosis H37Rv CNCTC My 331/88 (ATCC 27294); assay: Microplate Alamar Blue assay vs Mtb H37Rv; type: cell-based; details: Mycobacterium tuberculosis, pH 6.6, MABA, Middlebrook 7H9 pH 6.6, recalculated from µg/mL; read-out: MIC Mtb H37Rv
[3] = system: Mycobacterium kansasii DSM 44,162 (ATCC 12478); assay: Antimycobacterial microdilution (resazurin) vs M. kansasii; type: cell-based; details: read-out: MIC M. kansasii
[4] = system: Mycobacterium avium DSM 44,156 (ATCC 25291); assay: Antimycobacterial microdilution (resazurin) vs M. avium; type: cell-based; details: Mycobacterium avium, Middlebrook 7H9, resazurin; read-out: MIC M. avium
[5] = system: Mycolicibacterium aurum DSM 43,999 (ATCC 23366); assay: Antimycobacterial microdilution (resazurin) vs M. aurum; type: cell-based; details: Middlebrook 7H9, resazurin, read-out: MIC M. aurum
[6] = system: Mycolicibacterium smegmatis DSM 43,465 (ATCC 607); assay: Antimycobacterial microdilution (resazurin) vs M. smegmatis; type: cell-based; details: Middlebrook 7H9, resazurin, read-out: MIC M. smeg.
[7] = system: Staphylococcus aureus subsp. aureus CCM 4223 (ATCC 29213); assay: Antibacterial microdilution broth (EUCAST); type: cell-based; details: read-out: MIC Staphylococcus aureus subsp. aureus
[8] = system: methicillin-resistant Staphylococcus aureus subsp. aureus (MRSA) CCM 4750 (ATCC 43300); assay: microbe, parasite or virus in culture; type: cell-based; details: read-out: MIC Methicillin-resistant Staphylococcus aureus subsp. aureus
[9] = system: Staphylococcus epidermidis CCM 4418 (ATCC 12228); assay: Antibacterial microdilution broth (EUCAST); type: cell-based; details: read-out: MIC Staphylococcus epidermidis
[10] = system: Enterococcus faecalis CCM 4224 (ATCC 29212); assay: Antibacterial microdilution broth (EUCAST); type: cell-based; details: read-out: MIC Enterococcus faecalis
[11] = system: Escherichia coli CCM 3954 (ATCC 25922); assay: Antibacterial microdilution broth (EUCAST); type: cell-based; details: Escherichia coli, read-out: MIC Escherichia coli
[12] = system: Klebsiella pneumoniae CCM 4415 (ATCC 10031); assay: Antibacterial microdilution broth (EUCAST); type: cell-based; details: Klebsiella pneumoniae, read-out: MIC Klebsiella pneumoniae
[13] = system: Acinetobacter baumannii DSM 30007 (ATCC 19606); assay: Antibacterial microdilution broth (EUCAST); type: cell-based; details: read-out: MIC Acinetobacter baumannii
[14] = system: Pseudomonas aeruginosa CCM 3955 (ATCC 27853); assay: Antibacterial microdilution broth (EUCAST); type: cell-based; details: read-out: MIC Pseudomonas aeruginosa
[15] = system: Candida albicans CCM 8320 (ATCC 24433); assay: Antifungal microdilution broth (EUCAST); type: cell-based; details: Candida albicans, read-out: MIC Candida albicans
[16] = system: Candida krusei CCM 8271 (ATCC 6258); assay: Antifungal microdilution broth (EUCAST); type: cell-based; details: Pichia kudriavzevii, read-out: MIC Candida krusei
[17] = system: Candida parapsilosis CCM 8260 (ATCC 22019); assay: Antifungal microdilution broth (EUCAST); type: cell-based; details: Lodderomyces parapsilosis, read-out: MIC Candida parapsilosis
[18] = system: Candida tropicalis CCM 8264 (ATCC 750); assay: Antifungal microdilution broth (EUCAST); type: cell-based; details: read-out: MIC Candida tropicalis
[19] = system: Aspergillus fumigatus ATCC 204305; assay: Antifungal microdilution broth (EUCAST); type: cell-based; details: Aspergillus fumigatus, ATCC204305, read-out: MIC Aspergillus fumigatus
[20] = system: Aspergillus flavus CCM 8363; assay: Antifungal microdilution broth (EUCAST); type: cell-based; details: Aspergillus flavus, CCM8363, read-out: MIC Aspergillus flavus
[21] = system: Lichtheimia corymbifera CCM 8077; assay: Antifungal microdilution broth (EUCAST); type: cell-based; details: Lichtheimia corymbifera, CCM8077, read-out: MIC Lichtheimia corymbifera
[22] = system: Trichophyton interdigitale CCM 8377 (ATCC 9533); assay: Antifungal microdilution broth (EUCAST); type: cell-based; details: Trichophyton interdigitale, read-out: MIC Trichophyton interdigitale
HepG2 cell line = assay: Cytotoxicity screening, CellTiter 96 assay; details: Homo sapiens, HepG2, 24 h, read-out: IC50 HepG2

Compound | MIC [1] [µM] | MIC [2] [µM] | MIC [3] [µM] | MIC [4] [µM] | MIC [5] [µM] | MIC [6] [µM] | MIC ([8]; 24 h) [µM] | MIC ([8]; 48 h) [µM] | MIC ([9]; 24h incubation) [µM] | MIC ([9]; 48h incubation) [µM] | MIC ([10]; 24h incubation) [µM] | MIC ([10]; 48h incubation) [µM] | MIC ([11]; 24h incubation) [µM] | MIC ([11]; 48h incubation) [µM] | MIC ([12]; 24h incubation) [µM] | MIC ([12]; 48h incubation) [µM] | MIC ([13]; 24h incubation) [µM] | MIC ([13]; 48h incubation) [µM] | MIC ([14]; 24h incubation) [µM] | MIC ([14]; 48h incubation) [µM] | other results
O=C(Nc1ccc2c(c1)B(O)OC2)c1ncc[nH]c1=O [Compound 8, N-(1-hydroxy-1,3-dihydrobenzo[c][1,2]oxaborol-6-yl)-3-oxo-3,4-dihydropyrazine-2-carboxamide] | 231 (≈ 62.5 µg/mL) | 92.2 (≈ 25 µg/mL) | 231 (≈ 62.5 µg/mL) | 57.6 (≈ 15.6 µg/mL) | 28.8 (≈ 7.81 µg/mL) | 28.8 (≈ 7.81 µg/mL) | 125 (≈ 33.9 µg/mL) | 125 (≈ 33.9 µg/mL) | 500 (≈ 136 µg/mL) | 500 (≈ 136 µg/mL) | > 500 | > 500 | > 500 | > 500 | > 500 | > 500 | > 500 | > 500 | > 500 | > 500 | MIC ([7]; 24 h): 125 µM (≈ 33.9 µg/mL); MIC ([7]; 48 h): 125 µM (≈ 33.9 µg/mL); MIC ([15]; 24h incubation): > 500 µM; MIC ([15]; 48h incubation): > 500 µM; MIC ([16]; 24h incubation): > 500 µM; MIC ([16]; 48h incubation): > 500 µM; MIC ([17]; 24h incubation): > 500 µM; MIC ([17]; 48h incubation): > 500 µM; MIC ([18]; 24h incubation): > 500 µM; MIC ([18]; 48h incubation): > 500 µM; MIC ([19]; 24h incubation): > 500 µM; MIC ([19]; 48h incubation): > 500 µM; MIC ([20]; 24h incubation): > 500 µM; MIC ([20]; 48h incubation): > 500 µM; MIC ([21]; 24h incubation): > 500 µM; MIC ([21]; 48h incubation): > 500 µM; MIC ([22]; 72h incubation): > 500 µM; MIC ([22]; 120h incubation): > 500 µM; melting point: 326.4 to 328.3 °C (dec.); IC50 (HepG2 cell line): > 1000 µM
O=C(Nc1ccc2c(c1)B(O)OC2)c1cnc(O)cn1 [Compound 9, 5-hydroxy-N-(1-hydroxy-1,3-dihydrobenzo[c][1,2]oxaborol-6-yl)pyrazine-2-carboxamide] | 115 (≈ 31.3 µg/mL) | 184 (≈ 50 µg/mL) | 115 (≈ 31.3 µg/mL) | 231 (≈ 62.5 µg/mL) | 231 (≈ 62.5 µg/mL) | 57.6 (≈ 15.6 µg/mL) | > 500 | > 500 | > 500 | > 500 | > 500 | > 500 | > 500 | > 500 | > 500 | > 500 | > 500 | > 500 | > 500 | > 500 | MIC ([7]; 24h incubation): > 500 µM; MIC ([7]; 48h incubation): > 500 µM; MIC ([15]; 24h incubation): > 500 µM; MIC ([15]; 48h incubation): > 500 µM; MIC ([16]; 24h incubation): > 500 µM; MIC ([16]; 48h incubation): > 500 µM; MIC ([17]; 24h incubation): > 500 µM; MIC ([17]; 48h incubation): > 500 µM; MIC ([18]; 24h incubation): > 500 µM; MIC ([18]; 48h incubation): > 500 µM; MIC ([19]; 24h incubation): > 500 µM; MIC ([19]; 48h incubation): > 500 µM; MIC ([20]; 24h incubation): > 500 µM; MIC ([20]; 48h incubation): > 500 µM; MIC ([21]; 24h incubation): > 500 µM; MIC ([21]; 48h incubation): > 500 µM; MIC ([22]; 72h incubation): > 500 µM; MIC ([22]; 120h incubation): > 500 µM; melting point: 338.3 to 340.1 °C; IC50 (HepG2 cell line): > 1000 µM

From article PMC9917560, “Design, Synthesis and Antimicrobial Evaluation of New N-(1-Hydroxy-1,3-dihydrobenzo[c][1,2]oxaborol-6-yl)(hetero)aryl-2-carboxamides as Potential Inhibitors of Mycobacterial Leucyl-tRNA Synthetase” (International Journal of Molecular Sciences, 2023)
